Laboratory results from patent US20020082420A1, “Bicyclic heterocycles, pharmaceutical compositions containing them, their use, and processes for preparing them” (priority 2000, published 2002).

Experiments:
[1] = target: T1, human EGF-R (Homo sapiens, UniProt P00533); assay: Inhibition of EGF-dependent proliferation of F/L-HERc cells (Cell Titer 96 assay); assay type: cell-based; conditions: F/L-HERc cells (murine IL-3-dependent line expressing human EGF-R), stimulated with EGF 20 ng/ml, 48 hours at 37° C.
T1 construct: expressed in transfected cells; host or cells: F/L-HERc cells (murine IL-3-dependent FDC-P1 line transduced with an LXSN retroviral vector carrying human EGF-R cDNA; packaging line GP+E86)
T1 sequence (P00533 25-1210): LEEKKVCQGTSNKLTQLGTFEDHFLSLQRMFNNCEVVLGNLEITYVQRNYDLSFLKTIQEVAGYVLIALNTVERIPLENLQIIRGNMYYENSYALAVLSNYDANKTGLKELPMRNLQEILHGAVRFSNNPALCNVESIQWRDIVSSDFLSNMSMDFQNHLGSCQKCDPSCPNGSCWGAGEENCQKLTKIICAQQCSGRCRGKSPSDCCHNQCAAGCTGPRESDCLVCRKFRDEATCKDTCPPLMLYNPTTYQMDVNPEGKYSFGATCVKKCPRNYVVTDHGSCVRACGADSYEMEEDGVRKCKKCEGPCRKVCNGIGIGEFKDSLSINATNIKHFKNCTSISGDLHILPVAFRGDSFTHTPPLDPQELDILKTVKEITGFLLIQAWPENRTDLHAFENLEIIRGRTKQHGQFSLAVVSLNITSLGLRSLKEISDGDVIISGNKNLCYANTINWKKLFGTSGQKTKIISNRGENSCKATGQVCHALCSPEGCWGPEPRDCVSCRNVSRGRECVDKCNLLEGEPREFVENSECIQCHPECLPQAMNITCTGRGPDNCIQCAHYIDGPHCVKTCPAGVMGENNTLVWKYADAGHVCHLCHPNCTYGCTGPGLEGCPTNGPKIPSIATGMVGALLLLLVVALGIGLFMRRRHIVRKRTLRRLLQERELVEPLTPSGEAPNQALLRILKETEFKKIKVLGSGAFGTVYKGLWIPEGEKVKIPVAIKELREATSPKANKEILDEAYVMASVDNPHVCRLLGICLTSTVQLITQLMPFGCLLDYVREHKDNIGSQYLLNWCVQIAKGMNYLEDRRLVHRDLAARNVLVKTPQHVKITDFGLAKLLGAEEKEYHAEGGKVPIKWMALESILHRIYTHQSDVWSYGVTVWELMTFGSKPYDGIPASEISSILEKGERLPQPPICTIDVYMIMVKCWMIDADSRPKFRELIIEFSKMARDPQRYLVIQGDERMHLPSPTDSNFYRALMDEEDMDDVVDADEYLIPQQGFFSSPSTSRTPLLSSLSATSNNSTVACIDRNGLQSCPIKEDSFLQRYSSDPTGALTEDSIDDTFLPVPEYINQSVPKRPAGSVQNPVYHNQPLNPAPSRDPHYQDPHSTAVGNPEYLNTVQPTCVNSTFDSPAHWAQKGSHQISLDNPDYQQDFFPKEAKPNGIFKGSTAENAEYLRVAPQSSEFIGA
Description: A cell line of murine origin dependent on interleukin-3-(IL-3) which was genetically modified to express functional human EGF-R was used here. The proliferation of these cells known as F/L-HERc can therefore be stimulated either by murine IL-3 or by EGF (cf T. von Ruiden et al., EMBO J. 7, 2749-2756 (1988) and J. H. Pierce et al., Science 239, 628-631 (1988)).
The starting material used for the F/L-HERc cells was the cell line FDC-P1, the production of which has been described by T. M. Dexter et al., J. Exp. Med. 152. 1036-1047 (1980). Alternatively, however, other growth-factor-dependent cells may also be used (cf., e.g., J.H. Pierce et al., Science 239, 628-631 (1988); H. Shibuya et al., Cell 70, 57-67 (1992); and W. S. Alexander et al., EMBO J. 10, 3683-3691 (1991)). For expressing the human EGF-R cDNA (cf A. Ullrich et al., Nature 309, 418-425 (1984)) recombinant retroviruses were used as described by T. von Ruiden et al., EMBO J. 7, 2749-2756 (1988), except that the retroviral vector LXSN (cf A. D. Miller et al., BioTechniques 7, 980-990 (1989)) was used for the expression of the EGF-R cDNA and the line GP+E86 (cf D. Markowitz et al., J. Virol. 62, 1120-1124 (1988)) was used as the packaging cell.
The test was performed as follows:
F/L-HERc cells were cultivated in RPMI/1640 medium (BioWhittaker), supplemented with 10% fetal calf serum (FCS, Boehringer Mannheim), 2 mM glutamine (BioWhittaker), standard antibiotics and 20 ng/ml of human EGF (Promega), at 37° C. and 5% CO2. In order to investigate the inhibitory activity of the compounds according to the invention, 1.5×10^4 cells per well were cultivated in triplicate in 96-well plates in the above medium (200 μl), the cell proliferation being stimulated with either EGF (20 ng/ml) or murine IL-3. The IL-3 used was obtained from culture supernatants of the cell line X63/0 mIL-3 (cf H. Karasuyama et al., Eur. J. Immunol. 18, 97-104 (1988)). The compounds according to the invention were dissolved in 100% dimethylsulfoxide (DMSO) and added to the cultures in various dilutions, the maximum DMSO concentration being 1%. The cultures were incubated for 48 hours at 37° C.
In order to determine the inhibitory activity of the compounds according to the invention the relative cell number was measured in O.D. units using the Cell Titer 96™ Aqueous Non-Radioactive Cell Proliferation Assay (Promega). The relative cell number was calculated as a percentage of the control (F/LHERc cells without inhibitor) and the concentration of active substance which inhibits the proliferation of the cells by 50% (IC50) was derived therefrom.

Row | SMILES | IC50 [1] | melting point
1 | COC(=O)CN1CCC(Nc2ncc3ncnc(Nc4ccc5[nH]ccc5c4)c3n2)CC1 [2(28), 4-[(indol-5-yl)amino]-6-({1-[(methoxycarbonyl)methyl]piperidin-4-yl}amino)pyrimido [5,4-d]pyrimidine] | 26 nM | 167 °C
2 | COC(=O)CN(CC(=O)OC)C1CCC(N(C)c2ncc3ncnc(Nc4ccc(F)c(Cl)c4)c3n2)CC1 (stereo not drawn) [3(12), 4-[(3-chloro-4-fluorophenyl)amino]-6-[N-(trans-4-{N,N′-bis[(methoxycarbonyl)methyl]amino}cyclohex-1-yl)-N-methylamino]pyrimido[5,4-d]pyrimidine] | 103 nM | 162 to 164 °C
3 | O=C(O)CN1CCN(c2ncc3ncnc(Nc4ccc(F)c(Cl)c4)c3n2)CC1 [Example 1(6), 4-[(3-chloro-4-fluorophenyl)amino]-6-[4-(carboxymethyl)piperazin-1-yl]pyrimido[5,4-d]pyrimidine] | 2300 nM | 240 °C (dec.)
4 | O=C(O)CN1CCC(Nc2ncc3ncnc(Nc4ccc(F)c(Cl)c4)c3n2)CC1 [Example 1, 4-[(3-chloro-4-fluorophenyl)amino]-6-{ [1-(carboxymethyl)piperidin-4-yl]amino}pyrimido[5.4-d]pyrimidine] | 840 nM | 202 to 205 °C
5 | O=C1CN(C2CCC(Nc3ncc4ncnc(Nc5ccc(F)c(Cl)c5)c4n3)CC2)CCO1 (stereo not drawn) [Example 7, 4-[(3-chloro-4-fluorophenyl)amino]-6-{[trans-4-(2-oxomorpholin-4-yl)cvclohex-1-yl]amino}pyrimido[5,4-d]pyrimidine] | 122 nM | 202 to 204 °C
